Results taken from patent publication US7632851B2, “Benzo[1,2,5]oxadiazoles and benzol[1,2,5]thiadiazoles useful as histopathological staining agents, imaging agents and biomarkers” (Novartis AG, priority 2003, dated 2009).

Assay: Fluorescence of the compound (precondition of the staining test)
Type: physicochemical
Protocol: Four-micrometer thick paraffin sections from an APP23 mouse at 26 months of age are deparaffinized in xylene and rehydrated. 10 mg of the compound are dissolved in 1 mL DMSO and diluted with deionized water 1:10. This staining solution is applied on sections for about 20 min. Section background is cleared by washing with 95% ethanol. Finally sections are dehydrated in 99% ethanol, cleared in xylene and mounted with Vectashield™. Sections are investigated using fluorescence microscopy with the following filter combination: Excitation 450490 nm, emission 510 nm. Twenty micrometer thick cryotom sections from a AD brain cortex are air dried and fixated in 4% PFA for 5 min. After washing in tap water sections are stained either with Thioflavine S or with the compound for 5 min and further processed as described above. The compound is dissolved in DMSO and diluted to a final concentration of 0.01% with 50% Ethanol, Thioflavine S is dissolved in 50% Ethanol, final concentration is 0.01%.

Fluorescence, not fluorescent:
CNc1cccc(-c2ccc3nonc3c2)c1 [Example 4, (3Benzo[1,2,5]oxadiazol-5-yl-phenyl)-methyl-amine]
FCCOc1ccc(-c2ccc3nonc3c2)cc1 [Example 5, 5-[4-(2-Fluoro-ethoxy)-phenyl]-benzo[1,2,5]oxadiazole]
O=C(NCCF)c1cncc(-c2ccc3nonc3c2)c1 [Example 11, 5Benzo[1,2,5]oxadiazol-5-yl-N-(2-fluoro-ethyl)-nicotinamide]
O=C(NCCF)c1cnccc1-c1ccc2nonc2c1 [Example 12, 4Benzo[1,2,5]oxadiazol-5-yl-N-(2-fluoro-ethyl)-nicotinamide]
CNc1ccc(-c2ccc3nonc3c2)cc1[N+](=O)[O-] [Example 21, (4Benzo[1,2,5]oxadiazol-5-yl-2-nitro-phenyl)-methyl-amine]
